Laboratory results taken from PubChem BioAssay AID1259407 (Chemical Carcinogenesis Research Information System (CCRIS), 2018).
Calls of active or inactive are those of the source. How the calls were made is not given here.

System: CCRIS mutagenicity, Ames/micronucleus/aberration tests
Experiment: CCRIS mutagenicity studies

Measured: mutagenic call

F
active: Test System: MOUSE LYMPHOMA, Strain/Indicator: L5178Y (TK+/TK-), Metabolic Activation: NONE, Method: SUSPENSION/PLATE active; positive | Test System: MOUSE LYMPHOMA, Strain/Indicator: L5178Y (TK+/TK-), Metabolic Activation: RAT, LIVER, S-9, AROCLOR 1254, Method: SUSPENSION/PLATE active; positive
inactive: End Point: IN VIVO MICRONUCLEUS, Test System: BONE MARROW POLYCHROMATIC ERYTHROCYTES, Species: MOUSE, Strain/Sex: DDY/MALE, Route: IP inactive; negative | Test System: AMES SALMONELLA TYPHIMURIUM, Strain/Indicator: TA97A, Metabolic Activation: NONE, Method: STANDARD PLATE inactive; negative | Test System: AMES SALMONELLA TYPHIMURIUM, Strain/Indicator: TA97A, Metabolic Activation: RAT, LIVER, S-9, AROCLOR 1254, Method: STANDARD PLATE inactive; negative | Test System: AMES SALMONELLA TYPHIMURIUM, Strain/Indicator: TA98, Metabolic Activation: HAMSTER, LIVER, S-9, AROCLOR 1254 (10%), Method: PREINCUBATION inactive; negative | Test System: AMES SALMONELLA TYPHIMURIUM, Strain/Indicator: TA98, Metabolic Activation: NONE, Method: FLUCTUATION TEST inactive; negative | Test System: AMES SALMONELLA TYPHIMURIUM, Strain/Indicator: TA98, Metabolic Activation: NONE, Method: PREINCUBATION inactive; negative | Test System: AMES SALMONELLA TYPHIMURIUM, Strain/Indicator: TA98, Metabolic Activation: NONE, Method: STANDARD PLATE inactive; negative | Test System: AMES SALMONELLA TYPHIMURIUM, Strain/Indicator: TA98, Metabolic Activation: RAT, LIVER, S-9, AROCLOR 1254 (10%), Method: PREINCUBATION inactive; negative | Test System: AMES SALMONELLA TYPHIMURIUM, Strain/Indicator: TA98, Metabolic Activation: RAT, LIVER, S-9, AROCLOR 1254, Method: STANDARD PLATE inactive; negative | Test System: AMES SALMONELLA TYPHIMURIUM, Strain/Indicator: TA98, Metabolic Activation: RAT, LIVER, S-9, AROCLOR, Method: PREINCUBATION inactive; negative | Test System: AMES SALMONELLA TYPHIMURIUM, Strain/Indicator: TA98, Metabolic Activation: RAT, LIVER, S-9, PCB, Method: FLUCTUATION TEST inactive; negative | Test System: AMES SALMONELLA TYPHIMURIUM, Strain/Indicator: TA98, Metabolic Activation: RAT, LIVER, S-9, PCB, Method: STANDARD PLATE inactive; negative | Test System: AMES SALMONELLA TYPHIMURIUM, Strain/Indicator: TA98, Metabolic Activation: RAT, LIVER, S-9, PHENOBARBITAL, Method: STANDARD PLATE inactive; negative | Test System: AMES SALMONELLA TYPHIMURIUM, Strain/Indicator: TA100, Metabolic Activation: HAMSTER, LIVER, S-9, AROCLOR 1254 (10%), Method: PREINCUBATION inactive; negative | Test System: AMES SALMONELLA TYPHIMURIUM, Strain/Indicator: TA100, Metabolic Activation: NONE, Method: FLUCTUATION TEST inactive; negative | Test System: AMES SALMONELLA TYPHIMURIUM, Strain/Indicator: TA100, Metabolic Activation: NONE, Method: PREINCUBATION inactive; negative | Test System: AMES SALMONELLA TYPHIMURIUM, Strain/Indicator: TA100, Metabolic Activation: NONE, Method: STANDARD PLATE inactive; negative | Test System: AMES SALMONELLA TYPHIMURIUM, Strain/Indicator: TA100, Metabolic Activation: RAT, LIVER, S-9, AROCLOR 1254 (10%), Method: PREINCUBATION inactive; negative | Test System: AMES SALMONELLA TYPHIMURIUM, Strain/Indicator: TA100, Metabolic Activation: RAT, LIVER, S-9, AROCLOR 1254, Method: STANDARD PLATE inactive; negative | Test System: AMES SALMONELLA TYPHIMURIUM, Strain/Indicator: TA100, Metabolic Activation: RAT, LIVER, S-9, AROCLOR, Method: PREINCUBATION inactive; negative | Test System: AMES SALMONELLA TYPHIMURIUM, Strain/Indicator: TA100, Metabolic Activation: RAT, LIVER, S-9, PCB, Method: FLUCTUATION TEST inactive; negative | Test System: AMES SALMONELLA TYPHIMURIUM, Strain/Indicator: TA100, Metabolic Activation: RAT, LIVER, S-9, PCB, Method: STANDARD PLATE inactive; negative | Test System: AMES SALMONELLA TYPHIMURIUM, Strain/Indicator: TA100, Metabolic Activation: RAT, LIVER, S-9, PHENOBARBITAL, Method: STANDARD PLATE inactive; negative | Test System: AMES SALMONELLA TYPHIMURIUM, Strain/Indicator: TA102, Metabolic Activation: NONE, Method: STANDARD PLATE inactive; negative | Test System: AMES SALMONELLA TYPHIMURIUM, Strain/Indicator: TA102, Metabolic Activation: RAT, LIVER, S-9, AROCLOR 1254, Method: STANDARD PLATE inactive; negative | Test System: AMES SALMONELLA TYPHIMURIUM, Strain/Indicator: TA1535, Metabolic Activation: HAMSTER, LIVER, S-9, AROCLOR 1254 (10%), Method: PREINCUBATION inactive; negative | Test System: AMES SALMONELLA TYPHIMURIUM, Strain/Indicator: TA1535, Metabolic Activation: NONE, Method: PREINCUBATION inactive; negative | Test System: AMES SALMONELLA TYPHIMURIUM, Strain/Indicator: TA1535, Metabolic Activation: NONE, Method: STANDARD PLATE inactive; negative | Test System: AMES SALMONELLA TYPHIMURIUM, Strain/Indicator: TA1535, Metabolic Activation: RAT, LIVER, S-9, AROCLOR 1254 (10%), Method: PREINCUBATION inactive; negative | Test System: AMES SALMONELLA TYPHIMURIUM, Strain/Indicator: TA1535, Metabolic Activation: RAT, LIVER, S-9, AROCLOR 1254, Method: STANDARD PLATE inactive; negative | Test System: AMES SALMONELLA TYPHIMURIUM, Strain/Indicator: TA1535, Metabolic Activation: RAT, LIVER, S-9, AROCLOR, Method: PREINCUBATION inactive; negative | Test System: AMES SALMONELLA TYPHIMURIUM, Strain/Indicator: TA1537, Metabolic Activation: HAMSTER, LIVER, S-9, AROCLOR 1254 (10%), Method: PREINCUBATION inactive; negative | Test System: AMES SALMONELLA TYPHIMURIUM, Strain/Indicator: TA1537, Metabolic Activation: NONE, Method: PREINCUBATION inactive; negative | Test System: AMES SALMONELLA TYPHIMURIUM, Strain/Indicator: TA1537, Metabolic Activation: RAT, LIVER, S-9, AROCLOR 1254 (10%), Method: PREINCUBATION inactive; negative | Test System: AMES SALMONELLA TYPHIMURIUM, Strain/Indicator: TA1537, Metabolic Activation: RAT, LIVER, S-9, AROCLOR, Method: PREINCUBATION inactive; negative | Test System: AMES SALMONELLA TYPHIMURIUM, Strain/Indicator: TA1538, Metabolic Activation: NONE, Method: PREINCUBATION inactive; negative | Test System: AMES SALMONELLA TYPHIMURIUM, Strain/Indicator: TA1538, Metabolic Activation: RAT, LIVER, S-9, AROCLOR, Method: PREINCUBATION inactive; negative | Test System: CHINESE HAMSTER OVARY, Strain/Indicator: CHO-K1-BH4 (HGPRT), Metabolic Activation: NONE, Method: SUSPENSION/PLATE inactive; negative | Test System: CHINESE HAMSTER OVARY, Strain/Indicator: CHO-K1-BH4 (HGPRT), Metabolic Activation: RAT, LIVER, S-9, AROCLOR, Method: SUSPENSION/PLATE inactive; negative | Test System: CHINESE HAMSTER V-79, Strain/Indicator: V-79 (HGPRT)/6-THIOGUANINE, Metabolic Activation: NONE inactive; negative | Test System: CHINESE HAMSTER V-79, Strain/Indicator: V-79/6-THIOGUANINE, Metabolic Activation: NONE inactive; negative | Test System: E.COLI, Strain/Indicator: WP2 UVRA, Metabolic Activation: NONE, Method: FLUCTUATION TEST inactive; negative | Test System: E.COLI, Strain/Indicator: WP2 UVRA, Metabolic Activation: RAT, LIVER, S-9, PCB, Method: FLUCTUATION TEST inactive; negative

CC(=O)Nc1nc(-c2ccc([N+](=O)[O-])o2)cs1
active: Test System: AMES SALMONELLA TYPHIMURIUM, Strain/Indicator: TA100, Metabolic Activation: RAT, LIVER, S-9, KC500 OR PHENOBARBITAL, Method: LIQUID SUSPENSION active; positive | Test System: E. COLI WP2, Strain/Indicator: WP2, Metabolic Activation: NONE, Method: SPOT active; positive
